# Data as given in US20070275100A1, “Use of gaseous nitric oxide as an anti-cancer agent” (priority 1998, published 2007).
# “And” between values parts separate entries of the source, which are not always exact repeats. Equal values may be shown once.
# How the values were obtained:
# [1] = system: H460-epithelial metastatic; large cell lung cancer cells; experiment: MTS proliferation assay, H460 cells under continuous gNO exposure (Example 1); assay type: cell-based, human
# Excerpt: (gNO) 200 ppm and 350 ppm compared to air (control) on the survival of a representative line of cancer cells. […] […] The plates then were removed and cell viability assessed by an MTS proliferation assay.
# When exposed to 350 ppm of gNO, however, cancer cell survival rates decrease dramatically.
# A549 = experiment: MTS cell proliferation assay, 25,000 ppm gNO (Example 4), A549; assay type: cell-based, human
# Excerpt: (§1) The purpose of this example is to illustrate the tumorcidal activity of high-dosage gNO. We examined the cellular sensitivity to 25,000 ppm of gNO on 5 non-small cell lung cancer (NSCLC) cells lines by an MTS cell proliferation assay.
# (§2) Human lung cancer cell lines A549, NCI-H23, NCI-H460, HTB-58, H2170, and H441 (commercially available from American Type Culture Collection (“ATCC”), Manassas, Va.) were maintained in culture medium recommended by ATCC. All media were supplemented with 1% penicillin/streptomycin and 10% fetal bovine serum (commercially available from Invitrogen Gibco-BRL, Burlington, Ontario, Canada). […]
# (§3) After 24 hours, the A549, NCI-H23, NCI-H460, HTB-58, H2170 and H441 cells were treated with 25,000 ppm gNO or air (control) for 1 minute, 3 minutes, 6 minutes, 9 minutes, 10 minutes, 20 minutes, and 30 minutes. Immediately following treatment, the viability of the cells was determined using a colorimetric MTS (3-(4,5-dimethylthiazol-2-yl)-5-(3-carboxymethoxyphenyl)-2-(4-sulfophenyl)-2H-tetrazolium, inner salt) cell proliferation assay (commercially available as the CellTiter 960 Aqueous One Solution Cell Proliferation Assay (MTS) from Promega, Madison, Wis., USA) according to the manufacturer's protocol. […] Absorbance was measured at 490 nm for each well using a micro-plate reader (commercially available from Dynex Technologies, Chantilly, Va., USA). […]
# H441 = experiment: MTS cell proliferation assay, 25,000 ppm gNO (Example 4), H441; assay type: cell-based, human
# Excerpt: as §1, §2, §3
# [2] = system: normal human endothelial lung vascular cells (NHVE); experiment: Viability under 25,000 ppm gNO (Example 5), NHVE; assay type: cell-based
# Procedure: After 24 hours, the A549, NCI-H23, NCI-H460, HTB-58, H2170 and H441 cells were treated with 25,000 ppm gNO or air (control) for 1 minute, 3 minutes, 6 minutes, 9 minutes, 10 minutes, 20 minutes, and 30 minutes. Immediately following treatment, the viability of the cells was determined using a colorimetric MTS (3-(4,5-dimethylthiazol-2-yl)-5-(3-carboxymethoxyphenyl)-2-(4-sulfophenyl)-2H-tetrazolium, inner salt) cell proliferation assay (commercially available as the CellTiter 960 Aqueous One Solution Cell Proliferation Assay (MTS) from Promega, Madison, Wis., USA) according to the manufacturer's protocol. Briefly, […] of MTS solution was added to each well and the cells were incubated for 2 hours at 37° C. Absorbance was measured at 490 nm for each well using a micro-plate reader (commercially available from Dynex Technologies, Chantilly, Va., USA). The relative percentage of cell survival (viability) was calculated by dividing the absorbance of treated cells by that of control cells for each experimental time point.
# The purpose of this example is to illustrate the effects on normal human cell lines compared to the effects on cancerous cell lines of high-dosage gNO. The above study was repeated. […]
# [3] = system: infected wound on the skin; experiment: Topical gNO applied to an infected wound on the skin; assay type: in vivo; details: 200 ppm gNO topically applied
# Excerpt: For anti-inflammatory applications of high concentrations of gNO, it is hypothesized that the high dose of NO acts as a feedback loop to down regulate iNOS, and/or acts as a antioxidant on peroxynitrite and other reactive oxygen species and/or remove the stimulus such as bacterial load all leading to the amelioration of high levels of NO or its reactants resulting in damaging pathogenesis. This hypothesis is supported by testing results of the Applicant wherein 200 ppm gNO was topically applied to an infected wound on the skin. […] It is hypothesized that the body stopped producing the “bad” NO causing pathogenic inflammation.
# [4] = system: bacteria that cause nosocomial pneumonia in the intensive care unit; details: continuous in vitro exposure to 200 ppm gNO; cited from earlier work
# [5] = 350 ppm NO, 2 hours, RPMI medium
# [6] = 350 ppm NO, 2 hours, RPMI medium, listed as NO
smiles,measurement,setting,value
"[N]=O [gNO, nitric oxide]",Average,[1]; [5],0.158
same,Survival,[1]; [5],about 0%
same,Corrected Average,"[1]; 350 ppm NO, 2 hours, RPMI medium, blank subtracted",0.037
same,"MTS assay reading, individual wells",[1]; [6],0.193 and 0.147 and 0.152 and 0.154 (2×) and 0.156 and 0.172 and 0.157 and 0.149 (2×) and 0.165 and 0.155 and 0.158 and 0.145 and 0.184 and 0.143
same,Survival,[1]; [6],2%
same,survivability,"[1]; 350 ppm gNO, 24 hours continuous exposure, compared to air (control)",2%
same,IC50 (exposure time),A549,about 3 minutes
same,IC50 (exposure time),H441,about 7 minutes
same,viability at 25000 ppm,"H441; Homo sapiens, NCI-H441, 0.15 h, at 9 minutes",~17%
same,killing of normal endothelial cells,[2]; 6 minutes,rapidly killed
same,viability,"[2]; after 6 minutes, FIG. 8 B",less than 10%
same,bacterial load,[3],significantly reduced
same,inflammatory bodies (histological results),[3],significant reduction
same,serum NOX levels,[3]; compared to the infected control,lower
same,time to cytocidal effect,[4],≤ 5 h
